Results on 13 molecules are retold here after patent publication US20170094972A1, “Compounds and Compositions Having Knock-Down Activity Against Insect Pests” (priority 2015, published 2017).

Type in all cases: in vivo
Test [1] has as its system Aedes aegypti. The test can be described thus: 12 well plate knockdown test. As to conditions: 1 h, read-out: Aedes aegypti 1 hour % KD; for pest or weed control at 0.2 ppm: Rate 0.2 PPM; for pest or weed control at 2 ppm: Rate 2 PPM; for pest or weed control at 20 ppm: Rate 20 PPM; for pest or weed control at 200 ppm: Rate 200 PPM. The procedure:
(§1) The individual wells of a twelve (12) well tissue culture plates were treated with 100 μl of an ethanol solution containing a test compound at a defined concentration. Once the deposits were dry, five non-blood fed adult female Aedes aegypti or Anopheles stephensi (between two to five day old) were added to each well, and sustained with a 10% sucrose solution in a cotton wool plug. Assessment of the knockdown after 1 hour was carried out. Where multiple replicates of a treatment have been undertaken, the mean of those replicates is reported.

Test [2] deals with Anopheles stephensi. In words: 12 well plate knockdown test. The settings on record: 1 h, read-out: Anopheles stephensi 1 hour % KD; for pest or weed control at 0.2 ppm: Rate 0.2 PPM; for pest or weed control at 2 ppm: Rate 2 PPM; for pest or weed control at 20 ppm: Rate 20 PPM; for pest or weed control at 200 ppm: Rate 200 PPM. The procedure:
as §1

The test system of test [3] is Anopheles stephensi. In words: 6 well plate test, knockdown after 1 hour and mortality after 24 and 48 hours. Set-up: KD: unit not given here. The settings on record: for KD: after 1 hour. How it is done: The individual wells of six (6) well tissue culture plates were treated with […] of an ethanol solution containing a test compound at a defined concentration. Once the deposits were dry, ten non-blood fed adult female Anopheles stephensi (between two to five day old) were added to each well, and sustained with a 10% sucrose solution in a cotton wool plug. Assessment of the knockdown after 1 hour (Tables B1-B10), and mortality after 24 and 48 hours (Tables B1-B4) was carried out.
In case of multiple tests, the mean value is reported.

Turning to `CC(C)NOC(=O)c1cnccc1C(F)(F)F` [I.12], in test [1], the pest or weed control at 0.2 ppm was determined as 100%, the pest or weed control at 2 ppm stood at 100%, the pest or weed control at 20 ppm turned out to be 100% and the pest or weed control at 200 ppm came out at 100%. In test [2], the pest or weed control at 0.2 ppm stood at 0%, the pest or weed control at 2 ppm was 80%, the pest or weed control at 20 ppm is 100% and the pest or weed control at 200 ppm is 100%.

On to `CCCN1CN=C(c2cnccc2C(F)(F)F)OC1=O` [I.16], for which, in test [1], the pest or weed control at 0.2 ppm turned out to be 0%, the pest or weed control at 2 ppm came to 60%, the pest or weed control at 20 ppm was 60% and the pest or weed control at 200 ppm was determined as 100%. For the same molecule, in test [2], the pest or weed control at 0.2 ppm was 0%, the pest or weed control at 2 ppm was 0%, the pest or weed control at 20 ppm turned out to be 0% and the pest or weed control at 200 ppm was determined as 0%.

Consider `CNC(=O)c1cc(C#N)cc(C)c1NC(=O)c1cc(Br)nn1-c1ncccc1Cl` [Cyantraniliprole], for which the “knockdown after 1 hour, Alone” value is given as 0 in test [3] (Table B8, 6.25 ppm); 0 in test [3] (Table B8, 12.5 ppm); 0 in test [3] (Table B8, 25 ppm); 0 in test [3] (Table B8, 50 ppm); 0 in test [3] (Table B8, 100 ppm); 20 in test [3] (Table B8, 200 ppm).

Turning to `C=CCONC(=O)c1cnccc1C(F)(F)F` [I.17], in test [1], the pest or weed control at 0.2 ppm stood at 0%, the pest or weed control at 2 ppm was 0%, the pest or weed control at 20 ppm came to 0% and the pest or weed control at 200 ppm came to 0%. For the same molecule, in test [2], the pest or weed control at 0.2 ppm is 0%, the pest or weed control at 2 ppm was 0%, the pest or weed control at 20 ppm came out at 20% and the pest or weed control at 200 ppm was 100%.

For `C[Si](C)(C)CNC(=O)c1cnccc1C(F)(F)F` [I.25], in test [1], the pest or weed control at 0.2 ppm amounted to 100%, the pest or weed control at 2 ppm stood at 100%, the pest or weed control at 20 ppm was 100% and the pest or weed control at 200 ppm turned out to be 100%. Moreover, in test [2], the pest or weed control at 0.2 ppm stood at 80%, the pest or weed control at 2 ppm was 80%, the pest or weed control at 20 ppm is 100% and the pest or weed control at 200 ppm is 100%.

For the molecule `CSCC/C(N)=N\C(=O)c1cnccc1C(F)(F)F` [I.21], in test [1], the pest or weed control at 0.2 ppm turned out to be 0%, the pest or weed control at 2 ppm was found to be 0%, the pest or weed control at 20 ppm is 0% and the pest or weed control at 200 ppm came to 100%. Besides, in test [2], the pest or weed control at 0.2 ppm worked out at 20%, the pest or weed control at 2 ppm turned out to be 60%, the pest or weed control at 20 ppm was 100% and the pest or weed control at 200 ppm amounted to 100%.

As for `CCN(Cc1ccccc1)C(=O)c1cnccc1C(F)(F)F` [I.15], in test [1], the pest or weed control at 0.2 ppm amounted to 100%, the pest or weed control at 2 ppm came out at 100%, the pest or weed control at 20 ppm came out at 100% and the pest or weed control at 200 ppm came to 100%. In test [2], the pest or weed control at 0.2 ppm was 0%, the pest or weed control at 2 ppm was 0%, the pest or weed control at 20 ppm worked out at 0% and the pest or weed control at 200 ppm amounted to 0%.

Take `CS(=O)(=O)NC(=O)c1cnccc1C(F)(F)F` [I.24]: in test [1], the pest or weed control at 0.2 ppm stood at 100%, the pest or weed control at 2 ppm turned out to be 100%, the pest or weed control at 20 ppm turned out to be 100% and the pest or weed control at 200 ppm amounted to 100%. Also, in test [2], the pest or weed control at 0.2 ppm worked out at 40%, the pest or weed control at 2 ppm is 60%, the pest or weed control at 20 ppm amounted to 100% and the pest or weed control at 200 ppm came to 100%.

Consider `CC1(C)[C@H](C(=O)O[C@H](C#N)c2cccc(Oc3ccccc3)c2)[C@@H]1/C=C(\Cl)C(F)(F)F` (racemic) [Lambda-cyhalothrin], for which the “knockdown after 1 hour, Alone” value in test [3] (Table B5, 0.025 ppm) is recorded as 0; in test [3] (Table B5, 0.05 ppm) it was 0; in test [3] (Table B5, 0.1 ppm), 0; in test [3] (Table B5, 0.2 ppm), 40.

On to `CCN(CC)c1nc(C)cc(OP(=S)(OC)OC)n1` [pirimiphos-methyl], for which the 24 hr mort came to 0.0 in test [3] (Table B3, 0.03125 ppm alone); 0.0 in test [3] (Table B3, 0.0625 ppm alone); 0.0 in test [3] (Table B3, 0.125 ppm alone); 50.0 in test [3] (Table B3, 0.25 ppm alone); 100.0 in test [3] (Table B3, 0.5 ppm alone); 100.0 in test [3] (Table B3, 1 ppm alone). Moreover, the 48 hr mort in test [3] (Table B3, 0.03125 ppm alone) is reported as 0.0; in test [3] (Table B3, 0.0625 ppm alone), 0.0; in test [3] (Table B3, 0.125 ppm alone), 0.0; in test [3] (Table B3, 0.25 ppm alone) it was 50.0; in test [3] (Table B3, 0.5 ppm alone) it was 100.0; in test [3] (Table B3, 1 ppm alone) it was 100.0. Further, the KD is given as 0.0 in test [3] (Table B3, 0.03125 ppm alone); 0.0 in test [3] (Table B3, 0.0625 ppm alone); 0.0 in test [3] (Table B3, 0.125 ppm alone); 0.0 in test [3] (Table B3, 0.25 ppm alone); 0.0 in test [3] (Table B3, 0.5 ppm alone); 10.0 in test [3] (Table B3, 1 ppm alone). In addition, the “knockdown after 1 hour, Alone” value is on record as 0.0 in test [3] (Table B10, 0.0625 ppm); 0.0 in test [3] (Table B10, 0.125 ppm); 50.0 in test [3] (Table B10, 0.25 ppm); 100.0 in test [3] (Table B10, 0.5 ppm); 100.0 in test [3] (Table B10, 1 ppm).

`CCOCn1c(-c2ccc(Cl)cc2)c(C#N)c(Br)c1C(F)(F)F` [chlorfenapyr]: the 24 hr mort came out at 0.0 in test [3] (Table B1, 0.0625 ppm alone); 0.0 in test [3] (Table B1, 0.125 ppm alone); 0.0 in test [3] (Table B1, 0.25 ppm alone); 0.0 in test [3] (Table B1, 0.5 ppm alone); 6.7 in test [3] (Table B1, 1 ppm alone); 40.0 in test [3] (Table B1, 2 ppm alone). In addition, the 24 hr mort in test [3] (Table B2, 0.0625 ppm alone) amounted to 0.0; in test [3] (Table B2, 0.125 ppm alone), 0.0; in test [3] (Table B2, 0.25 ppm alone) it was 0.0; in test [3] (Table B2, 0.5 ppm alone), 0.0; in test [3] (Table B2, 1 ppm alone), 20.0; in test [3] (Table B2, 2 ppm alone), 50.0. The 48 hr mort is recorded as 0.0 in test [3] (Table B1, 0.0625 ppm alone); 0.0 in test [3] (Table B1, 0.125 ppm alone); 3.3 in test [3] (Table B1, 0.25 ppm alone); 16.7 in test [3] (Table B1, 0.5 ppm alone); 50.0 in test [3] (Table B1, 1 ppm alone); 90.0 in test [3] (Table B1, 2 ppm alone). The 48 hr mort in test [3] (Table B2, 0.0625 ppm alone) came to 0.0; in test [3] (Table B2, 0.125 ppm alone), 0.0; in test [3] (Table B2, 0.25 ppm alone) it was 0.0; in test [3] (Table B2, 0.5 ppm alone) it was 0.0; in test [3] (Table B2, 1 ppm alone), 40.0; in test [3] (Table B2, 2 ppm alone), 100.0. Further, the KD in test [3] (Table B1, 0.0625 ppm alone) came out at 0.0; in test [3] (Table B1, 0.125 ppm alone), 0.0; in test [3] (Table B1, 0.25 ppm alone), 0.0; in test [3] (Table B1, 0.5 ppm alone), 0.0; in test [3] (Table B1, 1 ppm alone), 0.0; in test [3] (Table B1, 2 ppm alone), 0.0. The KD in test [3] (Table B2, 0.0625 ppm alone) was determined as 0.0; in test [3] (Table B2, 0.125 ppm alone), 0.0; in test [3] (Table B2, 0.25 ppm alone) it was 0.0; in test [3] (Table B2, 0.5 ppm alone) it was 0.0; in test [3] (Table B2, 1 ppm alone) it was 0.0; in test [3] (Table B2, 2 ppm alone) it was 0.0.

For `CNC(=O)c1cc(Cl)cc(C)c1NC(=O)c1cc(Br)nn1-c1ncccc1Cl` [Chlorantraniliprole], the “knockdown after 1 hour, Alone” value in test [3] (Table B9, 12.5 ppm) came to 0; in test [3] (Table B9, 25 ppm), 0; in test [3] (Table B9, 50 ppm), 0; in test [3] (Table B9, 100 ppm), 20; in test [3] (Table B9, 200 ppm) it was 40.

In the case of `CC(C#N)NC(=O)c1cnccc1C(F)(F)F` (centres unmarked) [I.11], in test [1], the pest or weed control at 0.2 ppm was 100%, the pest or weed control at 2 ppm worked out at 100%, the pest or weed control at 20 ppm stood at 100% and the pest or weed control at 200 ppm worked out at 100%.
